Read-outs that look alike come from different tables or passages of the source.
Tests used:
H460 = experiment: Colony Forming Units (read-out 6 days), H460; format: cell-based, human; conditions: Homo sapiens, NCI-H460, 144 h, colonies containing more than 30 cells, read-out: Colony Forming Units, score based on IC50, H460
In short: (§1)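 Cells seeded at 100-150 per well and left to attach for 48 h before compound addition (0.001 μM-3 μM; DMSO controls). Incubated 5-7 days under culture conditions; colonies of more than 30 cells counted by microscope.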

HeLa = experiment: Colony Forming Units (read-out 6 days), HeLa; format: cell-based, human; conditions: Homo sapiens, 144 h, colonies containing more than 30 cells, read-out: Colony Forming Units, score based on IC50, HeLa
In short: as §1

[1] = Hoechst 33342 nuclear staining (48 h read-out); format: cell-based; conditions: Homo sapiens, MRC5 cells, read-out: Hoechst 33342 nuclear staining EC50, MRC5
In short: (§2)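 Adherent cells pre-spread 24 h before dosing, suspension cells dosed at seeding; compounds at 0.001 μM-10 μM final, 48 h at culture conditions. Hoechst 33342 (2-5 μg/ml) added for 30 min, then fluorescence microscopy scoring of apoptotic nuclear fraction and apoptosis-specific morphology, reported as scores A-D.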

tumor cells [2] = experiment: Hoechst 33342 nuclear staining (48 h read-out); format: cell-based
In short: as §2

[3] = Mitochondrial membrane potential, JC-1 (read-out 48 h); format: cell-based; conditions: PBL, JC-1, 48 h
In short: (§3)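 Tumor cells were treated with test compounds (adherent cells after 24 h of attachment, suspension cells immediately), medium holding up to 5% DMSO. After 48 h, JC-1 (2-5 μg/ml in added medium) was applied for 30 min. Fluorescence microscopy (FITC/TRITC filters) scored the fraction of cells with dissipated mitochondrial membrane potential as categories A-D.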

tumor cells [4] = experiment: as above; format: cell-based; conditions: JC-1, 48 h
In short: as §3

[5] = MTS proliferation assay (72 h read-out); format: cell-based; conditions: Homo sapiens, MRC5 cells
In short: (§4)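 Viability was read by MTS absorbance at 492 nm after 3 h with reagent. Before that, cells plated a day earlier at 1.5×10^3–10^4 per well had been incubated with test compound at final concentrations of 0.001–10 μM for 72 h; activity is given as category scores A–D.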

tumor cells [6] = experiment: MTS proliferation assay (72 h read-out); format: cell-based
In short: as §4

CCOc1ccc(OC)cc1C(=O)c1oc2ccc(Cl)cc2c1N [Example 12]
IC50 (H460): < 0.01 µM
IC50 (HeLa): 0.01 to 0.1 µM
EC50 [1]: 0.1 to 1 µM
EC50 (tumor cells [2]; Homo sapiens, HeLa cells, read-out: Hoechst 33342 nuclear staining EC50, HeLa): < 0.01 µM
EC50 (tumor cells [2]; Homo sapiens, Jurkat cells, read-out: Hoechst 33342 nuclear staining EC50, Jurkat): < 0.01 µM
EC50 (tumor cells [2]; Jily cells, read-out: Hoechst 33342 nuclear staining EC50, Jily): < 0.01 µM
EC50 [3]: > 1 µM
EC50 (tumor cells [4]; Homo sapiens, HeLa cells, read-out: Mitochondrial membrane potential (read-out 48 h) HeLa): 0.01 to 0.1 µM
EC50 (tumor cells [4]; Homo sapiens, Jurkat cells, read-out: Mitochondrial membrane potential (read-out 48 h) Jurkat): < 0.01 µM
EC50 (tumor cells [4]; Homo sapiens, MCF7 cells, read-out: Mitochondrial membrane potential (read-out 48 h) MCF7): 0.01 to 0.1 µM
EC50 (tumor cells [4]; Jily cells, read-out: Mitochondrial membrane potential (read-out 48 h) Jily): < 0.01 µM
IC50 [5]: < 0.01 µM
IC50 (tumor cells [6]; Homo sapiens, HT-1080, HT1080 cells, read-out: MTS proliferation assay IC50, HT1080): < 0.01 µM
IC50 (tumor cells [6]; Homo sapiens, HeLa cells, read-out: MTS proliferation assay IC50, HeLa): 0.01 to 0.1 µM
IC50 (tumor cells [6]; Homo sapiens, Jurkat cells, read-out: MTS proliferation assay IC50, Jurkat): < 0.01 µM
IC50 (tumor cells [6]; Jily cells, read-out: MTS proliferation assay IC50, Jily): < 0.01 µM
melting point: 124 to 125 °C

From patent US8486996B2, “Aroylfuranes and aroylthiophenes” (Basilea Pharmaceutica AG, priority 2006, dated 2013)
